From US10442835B2, “Water-soluble rapamycin derivatives” (Zhejiang Hisun Pharmaceutical Co., Ltd., priority 2016, dated 2019)

Tests used:
[1] = Body weight of OS-RC-2 tumor nude mice
Procedure: The experiment was terminated and tumors were stripped and weighted. The tumor inhibition rate was calculated.
The body weight can indirectly reflect the toxicity of the drugs.

[2] = Drug release in serum by prodrugs; assay type: in vitro ADME, rat; settings: 37° C.; HPLC at 10 min to 4 h
Procedure: The effects of the compounds according to the present invention as prodrugs of rapamycin can be confirmed by standard operational procedures of pharmacological experiments.
10 mL ZnCl2 solution with a concentration of 0.10 mol/L was prepared for use.
1.5 mL blood from ophthalmic artery of rats was injected into a 1.5 mL centrifuge tube and was centrifuged at 12000 rad/min for 10 min. 300 μl supernate (serum) was pipetted into a 1.5 mL centrifuge tube. 7 samples of the serum were prepared for use with the same method.
As a blank control, 100 μl water was added to centrifuge tube No. 7. Then the tubes were incubated at 37° C. in an incubator.
300 μl acetonitrile and 300 μl ZnCl2 solution of 0.1 mol/L were added to each of centrifuge tubes No. 1-6 at 10 min, 0.5 h, 1 h, 2 h, 3 h, and 4 h, respectively. The tubes were vortexed homogeneously for 5 min, so as to end the action of the enzyme in the serum on the compounds. 300 μl acetonitrile and 300 μl ZnCl2 solution of 0.1 M were added to the centrifuge tube No. 7 at 4 h, which was then vortexed homogeneously for 5 min.
Each of the centrifuge tubes No. 1-7 was centrifuged at 12000 rad/min for 15 min. The protein in the serum was removed via centrifuging.

[3] = Day 5, G4 compound I-1 8.12 mg/kg ig 3×/qw
[4] = Day 5, G5 compound I-1 2.0 mg/kg iv 3×/qw
[5] = Day 5, G6 compound I-1 8.12 mg/kg iv 3×/qw
[6] = Day 5, G7 compound I-1 32.7 mg/kg iv 1×/qw
[7] = Day 8, G4 compound I-1 8.12 mg/kg ig 3×/qw
[8] = Day 8, G5 compound I-1 2.0 mg/kg iv 3×/qw
[9] = Day 8, G6 compound I-1 8.12 mg/kg iv 3×/qw
[10] = Day 8, G7 compound I-1 32.7 mg/kg iv 1×/qw
[11] = Day 12, G4 compound I-1 8.12 mg/kg ig 3×/qw
[12] = Day 12, G5 compound I-1 2.0 mg/kg iv 3×/qw
[13] = Day 12, G6 compound I-1 8.12 mg/kg iv 3×/qw
[14] = Day 12, G7 compound I-1 32.7 mg/kg iv 1×/qw
[15] = Day 15, G4 compound I-1 8.12 mg/kg ig 3×/qw
[16] = Day 15, G5 compound I-1 2.0 mg/kg iv 3×/qw
[17] = Day 15, G6 compound I-1 8.12 mg/kg iv 3×/qw
[18] = Day 15, G7 compound I-1 32.7 mg/kg iv 1×/qw
[19] = Day 19, G4 compound I-1 8.12 mg/kg ig 3×/qw
[20] = Day 19, G5 compound I-1 2.0 mg/kg iv 3×/qw
[21] = Day 19, G6 compound I-1 8.12 mg/kg iv 3×/qw
[22] = Day 19, G7 compound I-1 32.7 mg/kg iv 1×/qw
[23] = Day 22, G4 compound I-1 8.12 mg/kg ig 3×/qw
[24] = Day 22, G5 compound I-1 2.0 mg/kg iv 3×/qw
[25] = Day 22, G6 compound I-1 8.12 mg/kg iv 3×/qw
[26] = Day 22, G7 compound I-1 32.7 mg/kg iv 1×/qw
[27] = Day 26, G4 compound I-1 8.12 mg/kg ig 3×/qw
[28] = Day 26, G5 compound I-1 2.0 mg/kg iv 3×/qw
[29] = Day 26, G6 compound I-1 8.12 mg/kg iv 3×/qw
[30] = Day 26, G7 compound I-1 32.7 mg/kg iv 1×/qw
[31] = Day 29, G4 compound I-1 8.12 mg/kg ig 3×/qw
[32] = Day 29, G5 compound I-1 2.0 mg/kg iv 3×/qw
[33] = Day 29, G6 compound I-1 8.12 mg/kg iv 3×/qw
[34] = Day 29, G7 compound I-1 32.7 mg/kg iv 1×/qw
[35] = Day 32, G4 compound I-1 8.12 mg/kg ig 3×/qw
[36] = Day 32, G5 compound I-1 2.0 mg/kg iv 3×/qw
[37] = Day 32, G6 compound I-1 8.12 mg/kg iv 3×/qw
[38] = Day 32, G7 compound I-1 32.7 mg/kg iv 1×/qw

CO[C@H]1C[C@@H]2CC[C@@H](C)[C@@](O)(O2)C(=O)C(=O)N2CCCC[C@H]2C(=O)OC([C@H](C)C[C@@H]2CC[C@@H](OCCOC(=O)CSC[C@H](NC(=O)CC[C@H](N)C(=O)O)C(=O)NCC(=O)O)[C@H](OC)C2)CC(=O)[C@H](C)/C=C(\C)[C@@H](O)[C@@H](OC)C(=O)[C@H](C)C[C@@H](C)\C=C/C=C/C=C/1C (stereo partly drawn) [Compound I-1]
Body Weight, mean value ([1]; Day 1, G4 compound I-1 8.12 mg/kg ig 3×/qw): 21.04 g
Body Weight, mean value ([1]; Day 1, G5 compound I-1 2.0 mg/kg iv 3×/qw): 20.67 g
Body Weight, mean value ([1]; Day 1, G6 compound I-1 8.12 mg/kg iv 3×/qw): 21.39 g
Body Weight, mean value ([1]; Day 1, G7 compound I-1 32.7 mg/kg iv 1×/qw): 21.28 g
Body Weight, mean value [1, 3]: 20.27 g
Decrease rate of body weight [1, 3]: 3.7%
Body Weight, mean value [1, 4]: 19.27 g
Decrease rate of body weight [1, 4]: 6.8%
Body Weight, mean value [1, 5]: 20.46 g
Decrease rate of body weight [1, 5]: 4.4%
Body Weight, mean value [1, 6]: 19.97 g
Decrease rate of body weight [1, 6]: 6.2%
Body Weight, mean value [1, 7]: 20.04 g
Decrease rate of body weight [1, 7]: 4.8%
Body Weight, mean value [1, 8]: 18.76 g
Decrease rate of body weight [1, 8]: 9.2%
Body Weight, mean value [1, 9]: 21.16 g
Decrease rate of body weight [1, 9]: 1.1%
Body Weight, mean value [1, 10]: 20.14 g
Decrease rate of body weight [1, 10]: 5.3%
Body Weight, mean value [1, 11]: 19.62 g
Decrease rate of body weight [1, 11]: 6.7%
Body Weight, mean value [1, 12]: 18.71 g
Decrease rate of body weight [1, 12]: 9.5%
Body Weight, mean value [1, 13]: 21.25 g
Decrease rate of body weight [1, 13]: 0.7%
Body Weight, mean value [1, 14]: 19.93 g
Decrease rate of body weight [1, 14]: 6.3%
Body Weight, mean value [1, 15]: 19.29 g
Decrease rate of body weight [1, 15]: 8.3%
Body Weight, mean value [1, 16]: 18.18 g
Decrease rate of body weight [1, 16]: 12.0%
Body Weight, mean value [1, 17]: 20.71 g
Decrease rate of body weight [1, 17]: 3.2%
Body Weight, mean value [1, 18]: 19.38 g
Decrease rate of body weight [1, 18]: 8.9%
Body Weight, mean value [1, 19]: 19.19 g
Decrease rate of body weight [1, 19]: 8.8%
Body Weight, mean value [1, 20]: 18.30 g
Decrease rate of body weight [1, 20]: 11.5%
Body Weight, mean value [1, 21]: 19.67 g
Decrease rate of body weight [1, 21]: 8.0%
Body Weight, mean value [1, 22]: 19.12 g
Decrease rate of body weight [1, 22]: 10.2%
Body Weight, mean value [1, 23]: 19.19 g
Decrease rate of body weight [1, 23]: 8.8%
Body Weight, mean value [1, 24]: 18.30 g
Decrease rate of body weight [1, 24]: 11.5%
Body Weight, mean value [1, 25]: 19.67 g
Decrease rate of body weight [1, 25]: 8.0%
Body Weight, mean value [1, 26]: 19.12 g
Decrease rate of body weight [1, 26]: 10.2%
Body Weight, mean value [1, 27]: 19.65 g
Decrease rate of body weight [1, 27]: 6.6%
Body Weight, mean value [1, 28]: 17.95 g
Decrease rate of body weight [1, 28]: 13.1%
Body Weight, mean value [1, 29]: 19.31 g
Decrease rate of body weight [1, 29]: 9.7%
Body Weight, mean value [1, 30]: 19.12 g
Decrease rate of body weight [1, 30]: 10.2%
Body Weight, mean value [1, 31]: 20.02 g
Decrease rate of body weight [1, 31]: 4.8%
Body Weight, mean value [1, 32]: 18.29 g
Decrease rate of body weight [1, 32]: 11.5%
Body Weight, mean value [1, 33]: 19.04 g
Decrease rate of body weight [1, 33]: 10.5%
Body Weight, mean value [1, 34]: 19.04 g
Decrease rate of body weight [1, 34]: 10.5%
Body Weight, mean value [1, 35]: 19.87 g
Decrease rate of body weight [1, 35]: 5.6%
Body Weight, mean value [1, 36]: 18.12 g
Decrease rate of body weight [1, 36]: 12.3%
Body Weight, mean value [1, 37]: 18.80 g
Decrease rate of body weight [1, 37]: 11.7%
Body Weight, mean value [1, 38]: 18.94 g
Decrease rate of body weight [1, 38]: 10.7%
release of everolimus in rat's serum [2]: slowly release everolimus
stability after dissolving in normal saline: the resulted solution is stable
